Measured values reported in ChEMBL document CHEMBL1159043, “Synthesis and hSERT activity of homotryptamine analogs. Part 6: [3+2] dipolar cycloaddition of 3-vinylindoles” (Bioorg Med Chem Lett, 2010).

These compounds were tested against Sodium-dependent serotonin transporter (Homo sapiens, UniProt P31645) (assay: Displacement of [I125]RTI-55 from human SERT transfected in human HEK293 cells).
Assay type: cell-based

Sequence of Sodium-dependent serotonin transporter (P31645 whole entry): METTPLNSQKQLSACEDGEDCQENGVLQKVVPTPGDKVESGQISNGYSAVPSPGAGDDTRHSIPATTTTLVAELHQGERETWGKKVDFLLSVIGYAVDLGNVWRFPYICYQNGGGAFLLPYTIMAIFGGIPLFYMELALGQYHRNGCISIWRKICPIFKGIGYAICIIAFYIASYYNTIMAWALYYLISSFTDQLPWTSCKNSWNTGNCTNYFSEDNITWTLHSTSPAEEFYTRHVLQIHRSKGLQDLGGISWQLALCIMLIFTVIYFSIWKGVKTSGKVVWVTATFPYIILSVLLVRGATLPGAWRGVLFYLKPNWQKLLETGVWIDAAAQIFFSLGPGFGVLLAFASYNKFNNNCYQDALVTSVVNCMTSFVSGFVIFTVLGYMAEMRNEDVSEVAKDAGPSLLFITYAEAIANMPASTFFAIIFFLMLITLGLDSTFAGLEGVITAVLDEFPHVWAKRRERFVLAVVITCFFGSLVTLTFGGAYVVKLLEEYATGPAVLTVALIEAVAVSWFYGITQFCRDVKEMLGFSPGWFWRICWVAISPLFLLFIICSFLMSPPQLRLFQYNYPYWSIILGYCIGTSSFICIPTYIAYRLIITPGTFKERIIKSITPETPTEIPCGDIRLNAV

IC50 [nM]	SMILES
4.2	CN1CCc2ccccc2C1CCc1c[nH]c2ccc(C#N)cc12 (single isomer, unassigned; (+))
80	N#Cc1ccc2[nH]cc(CCC3CCCCN3CCC(F)(F)F)c2c1 (configuration not stated)
46	N#Cc1ccc2[nH]cc(CCC3CCCCN3Cc3cc(C(F)(F)F)cc(C(F)(F)F)c3)c2c1 (configuration not stated)
7.6	CN1CC[C@H](Cc2ccccc2)C[C@@H]1CCc1c[nH]c2ccc(C#N)cc12
7	N#Cc1ccc2[nH]cc(CCC3CCCCN3Cc3ccccc3)c2c1 (configuration not stated)
18	N#Cc1ccc2[nH]cc(CC[C@H]3C[C@@H](Cc4ccccc4)CCN3)c2c1
120	COc1ccc2[nH]cc(CCC3c4ccccc4CCN3C)c2c1 (configuration not stated)
0.42	CN1CCc2ccccc2C1CCc1c[nH]c2ccc(C#N)cc12 (single isomer, unassigned; (-)) [listing 1 of 2 here]
5.7	CN1CCc2ccccc2C1CCc1c[nH]c2ccc(F)cc12 (configuration not stated)
1.1	CN1CCc2ccccc2C1CCc1c[nH]c2ccc(C#N)cc12 (stereo in doubt; 21a)

SMILES	IC50 [nM]
N#Cc1ccc2[nH]cc(CCC3CCCCN3)c2c1 (configuration not stated)	2.5
CCN1CCCCC1CCc1c[nH]c2ccc(C#N)cc12 (configuration not stated)	4
CN1CCCCC1CCc1c[nH]c2ccc(C#N)cc12 (configuration not stated)	3.9
CN1CCOCC1CCc1c[nH]c2ccc(C#N)cc12 (configuration not stated)	76
CN1CCCCC1(C)CCc1c[nH]c2ccc(C#N)cc12 (configuration not stated)	2.1
CC1(CCc2c[nH]c3ccc(C#N)cc23)CCCCN1 (configuration not stated)	17
N#Cc1ccc2[nH]cc(CCC3CCCN3)c2c1 (configuration not stated)	17
CN1CCCC1CCc1c[nH]c2ccc(C#N)cc12 (configuration not stated)	8.1

What follows are compounds tested against Sodium-dependent noradrenaline transporter (Homo sapiens, UniProt P23975) (assay: Displacement of [125I]nisoxetine from human NET transfected in human HEK293 cells).
Sequence of Sodium-dependent noradrenaline transporter (P23975 whole entry): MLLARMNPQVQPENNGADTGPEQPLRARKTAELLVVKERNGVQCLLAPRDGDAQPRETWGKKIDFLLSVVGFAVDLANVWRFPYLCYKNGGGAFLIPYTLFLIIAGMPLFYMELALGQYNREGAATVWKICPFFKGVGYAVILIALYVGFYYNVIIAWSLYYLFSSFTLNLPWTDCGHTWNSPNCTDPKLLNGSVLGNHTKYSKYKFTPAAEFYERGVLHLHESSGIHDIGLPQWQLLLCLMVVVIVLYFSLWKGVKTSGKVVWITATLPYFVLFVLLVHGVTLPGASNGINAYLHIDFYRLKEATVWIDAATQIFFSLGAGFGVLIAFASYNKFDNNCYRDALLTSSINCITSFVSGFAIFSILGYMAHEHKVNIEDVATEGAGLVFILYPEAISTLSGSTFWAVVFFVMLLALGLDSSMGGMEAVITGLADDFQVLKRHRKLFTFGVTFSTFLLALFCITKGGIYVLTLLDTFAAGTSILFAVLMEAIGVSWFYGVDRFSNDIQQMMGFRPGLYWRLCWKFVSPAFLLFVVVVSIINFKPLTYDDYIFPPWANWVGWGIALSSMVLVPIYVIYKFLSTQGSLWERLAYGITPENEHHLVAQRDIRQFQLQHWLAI
Assay type: cell-based

IC50 [nM]	SMILES
> 10000	CN1CCc2ccccc2C1CCc1c[nH]c2ccc(C#N)cc12 (single isomer, unassigned; (-)) [listing 1 of 2 here]

Organism: Homo sapiens
Test: Selectivity ratio of IC50 for human NET to IC50 for human SERT

Ratio IC50	SMILES
> 20000	CN1CCc2ccccc2C1CCc1c[nH]c2ccc(C#N)cc12 (single isomer, unassigned; (-)) [listing 2 of 2 here]

What follows are compounds tested against Sodium-dependent dopamine transporter (Homo sapiens, UniProt Q01959) (assay: Displacement of [I125]RTI-55 from human DAT transfected in human HEK293 cells).
Sequence of Sodium-dependent dopamine transporter (Q01959 whole entry): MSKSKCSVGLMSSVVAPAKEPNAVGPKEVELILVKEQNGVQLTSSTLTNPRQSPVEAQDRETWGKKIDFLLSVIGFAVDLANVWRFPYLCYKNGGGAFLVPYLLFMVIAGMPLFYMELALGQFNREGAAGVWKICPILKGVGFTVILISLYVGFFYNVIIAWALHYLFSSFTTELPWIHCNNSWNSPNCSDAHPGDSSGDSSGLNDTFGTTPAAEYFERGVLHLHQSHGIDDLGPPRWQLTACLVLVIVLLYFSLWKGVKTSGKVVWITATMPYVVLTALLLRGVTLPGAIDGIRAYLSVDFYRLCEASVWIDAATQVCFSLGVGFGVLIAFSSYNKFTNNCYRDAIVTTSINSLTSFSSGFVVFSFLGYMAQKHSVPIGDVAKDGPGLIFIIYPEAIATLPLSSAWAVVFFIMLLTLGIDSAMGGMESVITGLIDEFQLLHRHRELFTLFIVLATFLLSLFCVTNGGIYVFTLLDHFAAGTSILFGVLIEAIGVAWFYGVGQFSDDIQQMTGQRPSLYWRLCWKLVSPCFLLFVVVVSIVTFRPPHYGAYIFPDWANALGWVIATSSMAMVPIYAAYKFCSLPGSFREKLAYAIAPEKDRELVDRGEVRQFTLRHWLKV
Assay type: cell-based

IC50 [nM]	SMILES
620	CN1CCc2ccccc2C1CCc1c[nH]c2ccc(C#N)cc12 (single isomer, unassigned; (-)) [listing 1 of 2 here]

Organism: Homo sapiens
Test: Selectivity ratio of IC50 for human DAT to IC50 for human SERT

Ratio IC50	SMILES
1500	CN1CCc2ccccc2C1CCc1c[nH]c2ccc(C#N)cc12 (single isomer, unassigned; (-)) [listing 2 of 2 here]
